Experiments:
[1] = tested on: Puccinia recondita f. sp. tritici; details: in Triticum aestivum, foliar, read-out: control of Puccinia recondita f, sp. tritici
Description: Example A10: Puccinia recondita f. sp. tritici/Wheat/Leaf Disc Preventative (Brown Rust)
Wheat leaf segments cv. Kanzler are placed on agar in multiwell plates (24-well format) and sprayed with the formulated test compound diluted in water. The leaf disks are inoculated with a spore suspension of the fungus 1 day after application. The inoculated leaf segments are incubated at 19° C. and 75% rh under a light regime of 12 h light/12 h darkness in a climate cabinet and the activity of a compound is assessed as percent disease control compared to untreated when an appropriate level of disease damage appears in untreated check leaf segments (7-9 days after application).

[2] = tested on: Mycosphaerella arachidis (Cercospora arachidicola); assay: Example A7: Mycosphaerella arachidis (Cercospora arachidicola) / liquid culture (early leaf spot); format: cell-based; details: 4-5 days after application, compared to untreated control
[3] = tested on: Glomerella lagenarium (Colletotrichum lagenarium); assay: Example A3: Glomerella lagenarium (Colletotrichum lagenarium) / liquid culture (anthracnose); format: cell-based; details: Colletotrichum orbiculare, 3-4 days after application, compared to untreated control

| Compound | pest or weed control at 200 ppm [1] [%] | inhibition of growth at 20 ppm [2] [%] | inhibition of growth at 20 ppm [3] [%] |
| --- | --- | --- | --- |
| Cc1sc(N(C#N)c2cc(F)nc(F)c2)nc1C(=O)NC1CCC1 [X.02, 2-[cyano-(2,6-difluoro-4-pyridyl)amino]-N-cyclobutyl-5-methyl-thiazole-4-carboxamide] | ≥ 80 |  |  |
| Cc1sc(N(C#N)c2cc(F)cc(F)c2)nc1C(=O)NC1CCC1(C)C (stereo not drawn) [X.03, 2-(N-cyano-3,5-difluoro-anilino)-N-(2,2-dimethylcyclobutyl)-5-methyl-thiazole-4-carboxamide] | ≥ 80 |  |  |
| Cc1sc(N(C#N)c2cc(F)nc(F)c2)nc1C(=O)NC1CCC1(C)C (stereo not drawn) [X.05, 2-[cyano-(2,6-difluoro-4-pyridyl)amino]-N-(2,2-dimethylcyclobutyl)-5-methyl-thiazole-4-carboxamide] | ≥ 80 |  |  |
| Cc1sc(N(C#N)c2cc(F)nc(F)c2)nc1C(=O)NC1CCC12CCCC2 (stereo not drawn) [X.07, 2-[cyano-(2,6-difluoro-4-pyridyl)amino]-5-methyl-N-spiro[3.4]octan-3-yl-thiazole-4-carboxamide] | ≥ 80 |  |  |
| Cc1sc(N(C#N)c2cc(F)nc(F)c2)nc1C(=O)NC1CCC12Cc1ccccc1C2 (stereo not drawn) [X.08, 2-[cyano-(2,6-difluoro-4-pyridyl)amino]-5-methyl-N-spiro[cyclobutane-2,2′-indane]-1-yl-thiazole-4-carboxamide] | ≥ 80 |  |  |
| Cc1sc(N(C#N)c2cc(F)nc(F)c2)nc1C(=O)NC1CCC12CCC2 (stereo not drawn) [X.09, 2-[cyano-(2,6-difluoro-4-pyridyl)amino]-5-methyl-N-spiro[3.3]heptan-3-yl-thiazole-4-carboxamide] | ≥ 80 |  |  |
| Cc1sc(N(C#N)c2cc(F)nc(F)c2)nc1C(=O)NCC1(CC2CC2)CC1 [X.10, 2-[cyano-(2,6-difluoro-4-pyridyl)amino]-N-[[1-(cyclopropylmethyl)cyclopropyl]methyl]-5-methyl-thiazole-4-carboxamide] | ≥ 80 |  |  |
| Cc1sc(N(C#N)c2cc(F)cc(F)c2)nc1C(=O)NC1(C)CCCC1 [X.11, 2-(N-cyano-3,5-difluoro-anilino)-5-methyl-N-(1-methylcyclopentyl)thiazole-4-carboxamide] | ≥ 80 |  |  |
| Cc1sc(N(C#N)c2cc(F)nc(F)c2)nc1C(=O)NC1(C)CCCC1 [X.12, 2-[cyano-(2,6-difluoro-4-pyridyl)amino]-5-methyl-N-(1-methylcyclopentyl)thiazole-4-carboxamide] | ≥ 80 |  |  |
| CCCCCCNC(=O)c1nc(N(C#N)c2cc(F)nc(F)c2)sc1C [X.14, 2-[cyano-(2,6-difluoro-4-pyridyl)amino]-N-hexyl-5-methyl-thiazole-4-carboxamide] | ≥ 80 |  |  |
| Cc1sc(N(C#N)c2cc(F)nc(F)c2)nc1C(=O)NCC(C)C [X.15, 2-[cyano-(2,6-difluoro-4-pyridyl)amino]-N-isobutyl-5-methyl-thiazole-4-carboxamide] | ≥ 80 | ≥ 80 |  |
| Cc1sc(N(C#N)c2cc(F)nc(F)c2)nc1C(=O)NC(C)c1ccccc1 (stereo not drawn) [X.16, 2-[cyano-(2,6-difluoro-4-pyridyl)amino]-5-methyl-N-(1-phenylethyl)thiazole-4-carboxamide] | ≥ 80 |  |  |
| Cc1sc(N(C#N)c2cc(F)nc(F)c2)nc1C(=O)NCC(C)(C)C [X.18, 2-[cyano-(2,6-difluoro-4-pyridyl)amino]-N-(2,2-dimethylpropyl)-5-methyl-thiazole-4-carboxamide] | ≥ 80 |  |  |
| CCCCCNC(=O)c1nc(N(C#N)c2cc(F)nc(F)c2)sc1C [X.20, 2-[cyano-(2,6-difluoro-4-pyridyl)amino]-5-methyl-N-pentyl-thiazole-4-carboxamide] | ≥ 80 |  | ≥ 80 |
| Cc1sc(N(C#N)c2cc(F)nc(F)c2)nc1C(=O)NCc1ccccc1 [X.23, N-benzyl-2-[cyano-(2,6-difluoro-4-pyridyl)amino]-5-methyl-thiazole-4-carboxamide] | ≥ 80 |  |  |
| CCCCNC(=O)c1nc(N(C#N)c2cc(F)nc(F)c2)sc1C [X.24, N-butyl-2-[cyano-(2,6-difluoro-4-pyridyl)amino]-5-methyl-thiazole-4-carboxamide] | ≥ 80 |  |  |

From patent US12336537B2, “Fungicidal compositions” (SYNGENTA CROP PROTECTION AG, priority 2020, dated 2025)
